The values that follow come from US8791148B2, “Substituted benzimidazolone derivatives, medicaments comprising them and their use” (AbbVie Deutschland GmbH & Co. KG, priority 2006, dated 2014).

The test deals with T1, human vasopressin V1b receptor (Homo sapiens, UniProt P47901).
T1 construct: expressed in transfected cells; host or cells: CHO-K1 (cell line hV1b-3H2_CHO), membrane preparation
T1 sequence (P47901 1-424): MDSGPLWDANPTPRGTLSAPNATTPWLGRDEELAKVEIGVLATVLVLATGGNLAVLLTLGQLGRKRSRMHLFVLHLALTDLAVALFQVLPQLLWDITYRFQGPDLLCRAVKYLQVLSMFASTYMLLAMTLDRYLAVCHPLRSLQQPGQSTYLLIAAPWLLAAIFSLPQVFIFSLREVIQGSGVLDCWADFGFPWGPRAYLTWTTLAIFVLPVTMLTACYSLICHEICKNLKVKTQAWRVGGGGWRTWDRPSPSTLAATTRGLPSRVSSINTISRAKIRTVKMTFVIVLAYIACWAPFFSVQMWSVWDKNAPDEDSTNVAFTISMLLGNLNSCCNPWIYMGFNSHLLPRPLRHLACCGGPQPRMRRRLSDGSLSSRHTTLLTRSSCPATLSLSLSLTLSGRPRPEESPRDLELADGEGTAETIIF
The experiment in a line: Vasopressin V1b receptor binding assay. Particulars: membranes from CHO-K1 cells with stably expressed human V1b receptors; displacement of 1.5 nM 3H-AVP; read-out: V1b receptor affinity (affinity constant Ki). In outline: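 Ki values come from nonlinear regression of triplicate scintillation counts after filtration. Test compound (2% DMSO in the mixture) and radioligand were incubated 60 min at room temperature with human V1b membranes in pH 7.4 Tris buffer with 10 mM MgCl2 and 0.1% BSA. Nonspecific binding was set with 1 uM AVP.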

For the molecule `COc1ccc(S(=O)(=O)n2c(=O)n(CC(=O)N3CCC(N4CCN(C)CC4)CC3)c3cc(Cl)ccc32)cc1` [Example 95, 5-Chloro-1-(4-methoxybenzenesulfonyl)-3-{2-[4-(4-methylpiperazin-1-yl)piperidin-1-yl]-2-oxo-ethyl}-1,3-dihydrobenzimidazol-2-one], the inhibition constant (Ki) lay within 500 to 10000 nM.

As to `COc1ccc(S(=O)(=O)n2c(=O)n(C(C(=O)N3CCN(CC4CCCN(C)C4)CC3)c3ccccc3)c3cc(Cl)ccc32)cc1` (stereo not drawn) [Example 96, 5-Chloro-1-(4-methoxybenzenesulfonyl)-3-{2-[4-(1-methylpiperidin-3-ylmethyl)piperazin-1-yl]-2-oxo-1-phenylethyl}-1,3-dihydrobenzimidazol-2-one], the Ki was 100 to 500 nM.

In the case of `COc1ccc(S(=O)(=O)n2c(=O)n(C(C(=O)N(C)C)c3ccccc3)c3cc(Cl)ccc32)cc1` (stereo not drawn) [Example 97, 2-[6-Chloro-3-(4-methoxybenzenesulfonyl)-2-oxo-2,3-dihydrobenzimidazol-1-yl]-N,N-dimethyl-2-phenylacetamide], the Ki lay in the range of 500 to 10000 nM.

On to `COc1ccc(S(=O)(=O)n2c(=O)n(C(C(=O)N3CCN(C)CC3)c3ccccc3)c3cc(Cl)ccc32)cc1` (stereo not drawn) [Example 98, 5-Chloro-1-(4-methoxybenzenesulfonyl)-3-[2-(4-methylpiperazin-1-yl)-2-oxo-1-phenylethyl]-1,3-dihydrobenzimidazol-2-one], for which the Ki is 500 to 10000 nM.

Consider `COc1ccc(S(=O)(=O)n2c(=O)n(C(C(=O)N3CCOCC3)c3ccccc3)c3cc(Cl)ccc32)cc1` (stereo not drawn) [Example 99, 5-Chloro-1-(4-methoxybenzenesulfonyl)-3-(2-morpholin-4-yl-2-oxo-1-phenylethyl)-1,3-dihydrobenzimidazol-2-one], for which the Ki lay within 500 to 10000 nM.

Regarding `COc1ccc(S(=O)(=O)n2c(=O)n(C(C(=O)NCc3ccccc3)c3ccccc3)c3cc(Cl)ccc32)cc1` (stereo not drawn) [Example 100, N-Benzyl-2-[6-chloro-3-(4-methoxybenzenesulfonyl)-2-oxo-2,3-dihydrobenzimidazol-1-yl]-2-phenylacetamide], the Ki fell in the range of 500 to 10000 nM.

On to `COc1ccc(S(=O)(=O)n2c(=O)n(C(C(=O)N3CCCCC3)c3ccccc3)c3cc(Cl)ccc32)cc1` (stereo not drawn) [Example 101, 5-Chloro-1-(4-methoxybenzenesulfonyl)-3-(2-oxo-1-phenyl-2-piperidin-1-ylethyl)-1,3-dihydrobenzimidazol-2-one], for which the Ki lay in the range of 500 to 10000 nM.

`COc1ccc(S(=O)(=O)n2c(=O)n(C(C(=O)N3CCCC3)c3ccccc3)c3cc(Cl)ccc32)cc1` (stereo not drawn) [Example 102, 5-Chloro-1-(4-methoxybenzenesulfonyl)-3-(2-oxo-1-phenyl-2-pyrrolidin-1-ylethyl)-1,3-dihydrobenzimidazol-2-one]: the Ki fell in the range of 100 to 500 nM.

With `COc1ccc(S(=O)(=O)n2c(=O)n(C(C(=O)Nc3ccccc3)c3ccccc3)c3cc(Cl)ccc32)cc1` (stereo not drawn) [Example 103, 2-[6-Chloro-3-(4-methoxybenzenesulfonyl)-2-oxo-2,3-dihydrobenzimidazol-1-yl]-2,N-diphenylacetamide], the inhibitory constant (Ki) fell in the range of 500 to 10000 nM.

Consider `CCN(CC)C(=O)C(c1ccccc1)n1c(=O)n(S(=O)(=O)c2ccc(OC)cc2)c2ccc(Cl)cc21` (stereo not drawn) [Example 104, 2-[6-Chloro-3-(4-methoxybenzenesulfonyl)-2-oxo-2,3-dihydrobenzimidazol-1-yl]-N,N-diethyl-2-phenylacetamide], for which the Ki was in the range of 500 to 10000 nM.

On to `COc1ccc(S(=O)(=O)n2c(=O)n(C(C(=O)N3CCN(c4ccccc4)CC3)c3ccccc3)c3cc(Cl)ccc32)cc1` (stereo not drawn) [Example 105, 5-Chloro-1-(4-methoxybenzenesulfonyl)-3-[2-oxo-1-phenyl-2-(4-phenylpiperazin-1-yl)ethyl]-1,3-dihydrobenzimidazol-2-one], for which the Ki lay in the range of 500 to 10000 nM.

As to `COc1ccc(S(=O)(=O)n2c(=O)n(C(C(=O)N(C)CCN(C)C)c3ccccc3)c3cc(Cl)ccc32)cc1` (stereo not drawn) [Example 106, 2-[6-Chloro-3-(4-methoxybenzenesulfonyl)-2-oxo-2,3-dihydrobenzimidazol-1-yl]-N-(2-dimethylaminoethyl)-N-methyl-2-phenylacetamide], the Ki is less than 100 nM.

With `CCCN1CCN(C2CCN(C(=O)C(c3ccccc3)n3c(=O)n(S(=O)(=O)c4ccc(OC)cc4)c4ccccc43)C2)CC1` (stereo not drawn) [Example 107, 1-(4-Methoxybenzenesulfonyl)-3-{2-oxo-1-phenyl-2-[3-(4-propylpiperazin-1-yl)-pyrrolidin-1-yl]ethyl}-1,3-dihydrobenzimidazol-2-one], the inhibitory constant (Ki) is less than 100 nM.

As for `CCCN1CCN(C2CCN(C(=O)Cn3c(=O)n(S(=O)(=O)c4ccc(OC)cc4)c4ccc(Cl)cc43)C2)CC1` (stereo not drawn) [Example 108, 5-Chloro-1-(4-methoxybenzenesulfonyl)-3-{2-oxo-2-[3-(4-propylpiperazin-1-yl)-pyrrolidin-1-yl]-ethyl}-1,3-dihydrobenzimidazol-2-one], the inhibition constant (Ki) fell in the range of 500 to 10000 nM.

Turning to `COc1ccc(S(=O)(=O)n2c(=O)n(C(C(=O)N3CCC[C@H]3c3ncon3)c3ccccc3)c3cc(Cl)ccc32)cc1` (stereo partly drawn) [Example 110, 5-Chloro-1-(4-methoxybenzenesulfonyl)-3-[2-((S)-2-[1,2,4]oxadiazol-3-ylpyrrolidin-1-yl)-2-oxo-1-phenylethyl]-1,3-dihydrobenzimidazol-2-one], the inhibitory constant (Ki) was in the range of 100 to 500 nM.

On to `COc1ccc(S(=O)(=O)n2c(=O)n(C(C(=O)NCc3ccccn3)c3ccccc3)c3cc(Cl)ccc32)cc1` (stereo not drawn) [Example 111, 2-[6-Chloro-3-(4-methoxybenzenesulfonyl)-2-oxo-2,3-dihydrobenzimidazol-1-yl]-2-phenyl-N-pyridin-2-ylmethylacetamide], for which the Ki is 500 to 10000 nM.

As to `COc1ccc(S(=O)(=O)n2c(=O)n(C(C(=O)NCc3cccnc3)c3ccccc3)c3cc(Cl)ccc32)cc1` (stereo not drawn) [Example 112, 2-[6-Chloro-3-(4-methoxybenzenesulfonyl)-2-oxo-2,3-dihydrobenzimidazol-1-yl]-2-phenyl-N-pyridin-3-ylmethylacetamide], the inhibition constant Ki was 500 to 10000 nM.

Take `COc1ccc(S(=O)(=O)n2c(=O)n(C(C(=O)NCCCN3CCOCC3)c3ccccc3)c3cc(Cl)ccc32)cc1` (stereo not drawn) [Example 113, 2-[6-Chloro-3-(4-methoxybenzenesulfonyl)-2-oxo-2,3-dihydrobenzimidazol-1-yl]-N-(3-morpholin-4-yl-propyl)-2-phenyl-acetamide]: the Ki fell in the range of 500 to 10000 nM.

As for `COc1ccc(S(=O)(=O)n2c(=O)n(C(C(=O)NCCN3CCCCC3)c3ccccc3)c3cc(Cl)ccc32)cc1` (stereo not drawn) [Example 114, 2-[6-Chloro-3-(4-methoxybenzenesulfonyl)-2-oxo-2,3-dihydrobenzimidazol-1-yl]-2-phenyl-N-(2-piperidin-1-ylethyl)acetamide], the inhibitory constant (Ki) was 500 to 10000 nM.

As to `COc1ccc(S(=O)(=O)n2c(=O)n(C(C(=O)NCCN3CCN(C)CC3)c3ccccc3)c3cc(Cl)ccc32)cc1` (stereo not drawn) [Example 115, 2-[6-Chloro-3-(4-methoxybenzenesulfonyl)-2-oxo-2,3-dihydrobenzimidazol-1-yl]-N-[2-(4-methylpiperazin-1-yl)ethyl]-2-phenylacetamide], the inhibition constant Ki was 100 to 500 nM.

Regarding `COc1ccc(S(=O)(=O)n2c(=O)n(C(C(=O)NCCc3c[nH]cn3)c3ccccc3)c3cc(Cl)ccc32)cc1` (stereo not drawn) [Example 116], the Ki was in the range of 500 to 10000 nM.

`COc1ccc(S(=O)(=O)n2c(=O)n(C(C(=O)N(C)CCCN(C)C)c3ccccc3)c3cc(Cl)ccc32)cc1` (stereo not drawn) [Example 117, 2-[6-Chloro-3-(4-methoxybenzenesulfonyl)-2-oxo-2,3-dihydrobenzimidazol-1-yl]-N-(3-dimethylaminopropyl)-N-methyl-2-phenylacetamide]: the Ki fell in the range of 100 to 500 nM.

For `CCN(CCN(C)C)C(=O)C(c1ccccc1)n1c(=O)n(S(=O)(=O)c2ccc(OC)cc2)c2ccc(Cl)cc21` (stereo not drawn) [Example 118, 2-[6-Chloro-3-(4-methoxybenzenesulfonyl)-2-oxo-2,3-dihydrobenzimidazol-1-yl]-N-(2-dimethylaminoethyl)-N-ethyl-2-phenylacetamide], the Ki is less than 100 nM.

For `CCN(CC)CCN(C)C(=O)C(c1ccccc1)n1c(=O)n(S(=O)(=O)c2ccc(OC)cc2)c2ccc(Cl)cc21` (stereo not drawn) [Example 119, 2-[6-Chloro-3-(4-methoxybenzenesulfonyl)-2-oxo-2,3-dihydrobenzimidazol-1-yl]-N-(2-diethylaminoethyl)-N-methyl-2-phenylacetamide], the inhibitory constant (Ki) was 100 to 500 nM.

As for `COc1ccc(S(=O)(=O)n2c(=O)n(C(C(=O)N(C)CCc3ccccn3)c3ccccc3)c3cc(Cl)ccc32)cc1` (stereo not drawn) [Example 120, 2-[6-Chloro-3-(4-methoxybenzenesulfonyl)-2-oxo-2,3-dihydrobenzimidazol-1-yl]-N-methyl-2-phenyl-N-(2-pyridin-2-ylethyl)acetamide], the Ki was 500 to 10000 nM.

Turning to `COc1ccc(S(=O)(=O)n2c(=O)n(C(C(=O)NCCCO)c3ccccc3)c3cc(Cl)ccc32)cc1` (stereo not drawn) [Example 121, 2-[6-Chloro-3-(4-methoxybenzenesulfonyl)-2-oxo-2,3-dihydrobenzimidazol-1-yl]-N-(3-hydroxypropyl)-2-phenylacetamide], the inhibitory constant (Ki) lay in the range of 500 to 10000 nM.

Take `CCCOCCNC(=O)C(c1ccccc1)n1c(=O)n(S(=O)(=O)c2ccc(OC)cc2)c2ccc(Cl)cc21` (stereo not drawn) [Example 122, 2-[6-Chloro-3-(4-methoxybenzenesulfonyl)-2-oxo-2,3-dihydrobenzimidazol-1-yl]-2-phenyl-N-(2-propoxyethyl)acetamide]: the Ki is 500 to 10000 nM.

As a reminder, the Ki is a dissociation constant, usually derived from enzyme kinetics or from competition with a known ligand.
